Laboratory results taken from PubChem BioAssay (NCI).
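Grown in 96-well plates, cells were treated for 48 hours with each compound at five concentrations. Insufficient inhibition: endpoint recorded as highest concentration tested. TGI marks complete inhibition of growth.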

Legend:
Assay in all cases: NCI anticancer screen, dose series, 48 h
SF-268 CNS = tested on: SF-268 CNS
A549 NSCLC = tested on: A549 NSCLC
RXF 393 renal = tested on: RXF 393 renal
SR leukemia = tested on: SR leukemia
UACC-257 melanoma = tested on: UACC-257 melanoma
SNB-19 CNS = tested on: SNB-19 CNS
SNB-75 CNS = tested on: SNB-75 CNS
MDA-MB-435 = tested on: MDA-MB-435
COLO 205 colon = tested on: COLO 205 colon
SK-MEL-2 melanoma = tested on: SK-MEL-2 melanoma
CAKI-1 renal = tested on: CAKI-1 renal
MDA-MB-231 breast = tested on: MDA-MB-231 breast

| Compound | TGI (SF-268 CNS) [µM] | TGI (A549 NSCLC) [µM] | TGI (RXF 393 renal) [µM] | TGI (SR leukemia) [µM] | TGI (UACC-257 melanoma) [µM] | TGI (SNB-19 CNS) [µM] | TGI (SNB-75 CNS) [µM] | TGI (MDA-MB-435) [µM] | TGI (COLO 205 colon) [µM] | TGI (SK-MEL-2 melanoma) [µM] | TGI (CAKI-1 renal) [µM] | TGI (MDA-MB-231 breast) [µM] |
| --- | --- | --- | --- | --- | --- | --- | --- | --- | --- | --- | --- | --- |
| CCC[C@H](C)[C@H]1NC(=O)[C@@H](NC(=O)[C@@H](CC(C)C)N(C)C(=O)C2CCCN2C(=O)[C@H](C)O)[C@@H](C)OC(=O)[C@H](CC(C)C)N(C)C(=O)[C@@H]2CCCN2C(=O)[C@H](CC(C)C)NC(=O)[C@@H](C)C(=O)[C@H](C(C)C)OC(=O)C[C@@H]1O (stereo not given in full) | 0.0303 | 0.131 | 0.016 | 0.0422 | 0.0205 | 0.06 | 0.0246 | 0.00519 | < 0.0025 | 0.00468 | 1.54 | 0.00855 |
| O=C1C(C=NCCc2c[nH]c3ccccc23)C(C(F)(F)F)=NN1c1nc2ccccc2s1 (stereo not given) | > 100 | > 100 | 48.5 | 93.9 | 41.9 | > 100 | > 100 | 71.9 | 34 | 77.7 | > 100 | > 100 |
| O=C1N[C@@H]2c3c(csc3Br)C(=O)[C@@H]2O1 | > 100 | > 100 | 43.7 | 74.1 | 58.9 | > 100 | > 100 | 46.9 | > 100 | > 100 | 43.1 | > 100 |
| Cc1cc(C)c2c(n1)S(=O)(=O)N(CCCN1CCN(c3cccc(C(F)(F)F)c3)CC1)/C(=C(\O)c1ccc(Cl)cc1)C2=O | 21.2 | 13.1 | 19.1 | > 100 | 8.49 | 16.6 | 8.04 | 15 | 3.58 | 16.8 | 8.77 | 18.7 |
| O=C1/C(=C/c2ccc([N+](=O)[O-])cc2)CNC/C1=C\c1ccc([N+](=O)[O-])cc1 | 4.47 | > 70.7 | 25.1 | 1.15 | > 100 | 10.6 | 17 | 23.9 | 28.3 | > 100 | 4.67 | 20.2 |
| CCOc1ccc(N=C/C=C(\Cl)c2ccc3ccccc3c2)cc1 | 37.4 | > 100 | 34.1 | 5.31 | 30.8 | 35.7 | 33.4 | 43.9 | 37.7 | 42.7 | 34 | 30.9 |
| CCOC(=O)C1C(=O)CC(O)(c2ccccc2)C(C(=O)OCC)C1c1ccc(OC)cc1 (stereo not given) | > 100 | > 100 | 50.5 | 32.5 | > 100 | > 72.5 | 11.9 | 11.4 | 47.9 | 77.6 | > 100 | > 100 |
| C/C(=N/NC(=S)Nc1cccc(C)c1)c1ccccn1 | 13.9 | 8.51 | 3.55 | 2.92 | 4.44 | 14.3 | 5.08 | 3.5 | 1.34 | 4.42 | 9.07 | 2.45 |
| O=C1C(Br)=Cc2c(Cl)sc(Cl)c21 | > 28 | > 72.9 | 6.17 | 15.5 | > 28.5 | 50.7 | 30.4 | 5.43 | 23.6 | 32.3 | 8.99 | 8.91 |
| N#Cc1c(OCCF)c2ccccc2n2c1nc1ccccc12 | > 100 | > 100 | > 100 | > 100 | > 100 | > 100 | > 100 | > 100 | > 100 | > 100 | > 100 | > 100 |
